{"source": "patent US20060240400A1", "about": "“High-density cell array board, process for producing the same and method of using the same” (priority 2003, published 2006)", "system": "rat primary hepatic solid tumor cells", "assay": "Chemical assay on high-density cell array substrate (cell morphology after microdispensed dichlorobenzene)", "format": "cell-based", "conditions": "after 10 minutes, 37° C., 0-4.5 mM in steps of 0.5 mM in 10 pl culture medium, single cells on substrates of Examples 1-5", "procedure": "Poly-N-isopropylacrylamide, polyacrylamide and polydimethylsiloxane were used as cell adhesive polymer, hydrophilic polymer and highly hydrophobic polymer, respectively. These solutions were used for preparing each layer by the procedure described below. First, a solution of N-isopropylacrylamide monomer in isopropyl alcohol at the concentration shown in Table 1 was applied on a polystyrene base in an amount of 0.01 ml/cm^2 in order to prepare a cell adhesive polymer-coated domain. The coating was irradiated with electron beams at a dose of 0.25 MGy to coat the surface of the base with poly-N-isopropylacrylamide. After irradiation, the substrate was thoroughly washed with water and dried to give a substrate having a poly-N-isopropylacrylamide layer. Then, a solution of acrylamide monomer in isopropyl alcohol at the concentration shown in Table 1 was applied on the substrate in an amount of 0.01 ml/cm^2 in order to prepare a cell non-adhesive hydrophilic polymer-coated domain on the preceding layer. The coating was irradiated with electron beams at a dose similar to the value used in the method described above and then washed and dried to give a substrate having a polyacrylamide layer on the poly-N-isopropylacrylamide layer. […]"}
{"substance": "dichlorobenzene", "values": [{"measurement": "dichlorobenzene concentration in culture medium at which cells were morphologically altered", "result": "≥ 2.5", "unit": "mM"}]}
